Here are results for one compound from patent US20030176511A1, “Compositions and methods for treating cardiovascular disorders” (priority 2000, published 2003).

Assay [1] concerns aortic lipoprotein lipid peroxidation. Briefly: Aqueous and lipophilic parameters of apoE−/−;LDLr−/− mouse aortae. It is filed as in vivo, mice. How it is done: Pooled aortas from 7-8 mice obtained from control or bisphenol-treated mice were homogenized, the lipid extracted and subjected to HPLC with post-column chemiluminescence detection for analysis of cholesteryl ester hydroperoxides (CE-OOH). Chromatograms correspond to aortas of age-matched control (a or b) or drug-treated mice with low or high plasma levels of bisphenol (c and d, respectively). Under the conditions used, CE-OOH eluted between 8 and 9.5 min. The chemiluminescence negative peaks between 4 and 5.5 min correspond to the elution of tocopherols.
Male apoE−/−;LDLr−/− mice (59 total), were maintained on standard R3 chow from weaning to 8 weeks of age (young controls, n=9). […]
Analyses of oxidised and non-oxidised lipids were carried out by RP-HPLC as described in Example 1 except that in some instances UV234 nm rather than post-column chemiluminescence detection was used to measure C18:2-OOH and the corresponding hydroxides (together referred to as CE-O(O)H) which show similar retention times under these chromatographic conditions. α-TQ, α-TOH, α-tocotrienol, D-isosascorbate and ascorbate were determined by HPLC with electrochemical detection. For oxidation of plasma, unesterified cholesterol (which remained non-oxidised in these experiments) was employed as internal standard for all polyunsaturated, lipid-soluble components analysed. […]

Assay [2] concerns plasma lipid peroxidation. Briefly: Ex vivo peroxyl radical (AAPH)-induced lipid peroxidation of plasma from apoE−/−;LDLr−/− mice. Format: in vivo. Particulars: pooled plasma of bisphenol-treated mice, 5 mM AAPH, 37° C. How it is done:
Pooled plasma obtained from at least 3 mice receiving control diet (circles) or diet supplemented with bisphenol (squares) were treated with 5 mM AAPH and incubated at 37° C. At the times indicted aliquots were removed and analysed for α-TOH (A) and CE-O(O)H (B). 100% α-TOH levels correspond to 28±3 and 20±2 μM for control and H 212/43 plasma, respectively. Data represents the mean±SD (n=4 independent experiments).
Oxidation of plasma, pooled from=3 mice was carried out by addition of the peroxyl radical generator (final concentrations 5 mM) and incubating the reaction mixture at 37° C. under air. Aliquots (50 μL) of the reaction mixture were removed, extracted in methanol/hexane (1:5, v/v), and the consumption of antioxidants and accumulation of lipid oxidation products determined.
Analyses of oxidised and non-oxidised lipids were carried out by RP-HPLC as described in Example 1 except that in some instances UV234 nm rather than post-column chemiluminescence detection was used to measure C18:2-OOH and the corresponding hydroxides (together referred to as CE-O(O)H) which show similar retention times under these chromatographic conditions. α-TQ, α-TOH, α-tocotrienol, D-isosascorbate and ascorbate were determined by HPLC with electrochemical detection. […] All compounds were quantified by peak area comparison with authentic standards. […]

Assay [3] concerns atherosclerosis in apoE−/−;LDLr−/− mice. The assay can be described thus: Atherosclerosis (intima volume, descending thoracic aorta) in apoE−/−;LDLr−/− mice. Format: in vivo. Particulars: bisphenol for 14 weeks, compared with age-matched controls. How it is done:
Lesion formation was assessed by changes to intima volume when compared with young and age-matched controls receiving standard chow for 8 and 22 weeks, respectively. *Denotes a statistically significant difference with α<0.025 (Wilcoxon test).
Aortic lesions were assessed in segments centered around the third pair of intercostal artery branches in the descending thoracic aorta. Briefly, the fixed aortas were dehydrated in ethanol, cleared with xylene and embedded in paraffin. Serial sections (10 in total; each 2-3 μm thick and 100 μm apart) were cut and stained using Weigerts hematoxylin-van Gieson. Aortic thickening was assessed as the total volume of intima in the segment investigated in bisphenol-treated versus control samples.
Aortic volumes were determined by planimetry, using a Lucivid device (MicroBrightField, Colchester, Vermont, […]) attached to a Leitz DRM microscope that allowed the superposition of a computer monitor onto the cross sectional image.

The subject of assay [4] is tocopherol-mediated peroxidation (TMP). The assay can be described thus: Anti-TMP index. It is filed as biochemical.
The next assay has as its system α-tocopheroxyl radical. The assay can be described thus: Tocopheroxyl radical attenuating ability (TRAA). Particulars: kobs in presence (+) or absence (−) of test compound. Format: biochemical.

With `CC(C)(C)c1cc(-c2cc(C(C)(C)C)c(O)c(C(C)(C)C)c2)cc(C(C)(C)C)c1O` [Bisphenol], the results for the “level of oxidised lipids in aortas, fold lower than control” value in assay [1] (drug-treated animals with high plasma levels of bisphenol) and in assay [1] (drug-treated animals with low plasma levels of bisphenol) were 1000 fold and 10 fold, respectively. Also, the “CE-OOH detected after 12 h of oxidation” value in assay [2] is under 1 µM. In assay [2], the “α-TOH after 12 h of oxidation” value is reported as “remained unaltered”. Moreover, the “lesion size (intimal volume, descending thoracic aorta)” value in assay [3] was “substantially decreased the lesion size”. Further, in assay [4], the Anti-TMP index is given as 3.2. In the assay with α-tocopheroxyl radical, the “TRAA (decay of α-tocopheroxyl radical; kobs(+)/kobs(−))” value is given as “Immediate decay”.
